# From patent EP0139005A1, “ANTITUMOR COMPOSITION, METHOD FOR TREATING TUMOR, AND USE OF THE COMPOSITION FOR TREATING TUMOR” (Yoshitomi Pharmaceutical Industries, Ltd., priority 1982, dated 1984)
# What was measured:
# [1] = system: IMC carcinoma; experiment: IMC carcinoma implanted intraperitoneally, survival (Experimental Example 1); assay type: in vivo, female CDF1 mice; conditions: for 30-day Survivors / Average Survival Time / Life-Prolongation Ratio (%): once daily for seven days
# Method: A plurality of groups each consisting of five heads of female CDF1 mice (7-8 weeks old) were implanted intraperitoneally with 10^6 cells of IMC carcinoma. After 24 hours, Y-6430 was respectively administered once daily for seven days, and average survival times, life-prolongation ratios and 30-day survivors were calculated.
# (§1) The life-prolongation ratio was calculated by the following scheme (the same scheme is applied to the subsequent experimental examples).
# (§2) Life-prolongation Ratio [formula] T : Average survival days of the treated group
# (§3) C : Average survival days of the control group
# (§4) Animals survived over 30 days or longer were estimated as 30-day survivors, and the cases where T/C equals to or greater than 125% were regarded as effective.
# [2] = system: P388 leukemia; experiment: P388 leukemia implanted intraperitoneally, survival (Experimental Example 2); assay type: in vivo, female CDF1 mice; conditions: for 30-day Survivors / Average Survival Time / Life-Prolongation Ratio (%): once daily for seven days
# Method: as §1, §2, §3, §4
# A plurality of groups each consisting of five heads of female CDF1 mice (7-8 weeks old) were respectively implanted intraperitoneally with 10^6 cells of P388 leukemia. After 24 hours, Y-6430 and ESCC were respectively administered once daily for seven days, and average survival days, life-prolongation ratios and 30-day survivors in each group were calculated.
# [3] = system: L1210 leukemia; experiment: L1210 leukemia implanted intraperitoneally, i.p. treatment, survival (Experimental Example 3); assay type: in vivo, female CDF1 mice; conditions: for Average Survival Time / Life-Prolongation Ratio (%): once daily for seven days
# Method: as §1, §2, §3, §4
# A plurality of groups each consisting of five heads of female CDF1 mice (8 weeks old) were respectively implanted intraperitoneally with 10 cells of L1210 leukemia. After the next day of the implantation, Y-6430, ESCC and ESCC ethyl ester (hereinafter referred to ESCC-Et) in physiological saline were respectively administered once daily for seven days intraperitoneally, and the average survival days and life-prolongation ratios in each group were calculated.
# (§5) All the test animals died of tumor within 30 days.
# [4] = system: L1210 leukemia; experiment: L1210 leukemia implanted intraperitoneally, oral or subcutaneous treatment, survival (Experimental Example 4); assay type: in vivo, female CDF1 mice; conditions: for Average Survival Time / Life-Prolongation Ratio (%): once daily for seven days
# Method: as §1, §2, §3, §4
# A plurality of groups each consisting of five female CDF1 mice (7-8 weeks old) were respectively implanted intraperitoneally with 10 cells of L1210 leukemia. After the next day of the implantation, the test animals were administered orally or subcutaneously once daily for seven days with Y-6430 or ESCC dissolved in physiological saline, and the average survival days and life-prolongation ratios in each group were calculated.
# as §5
# [5] = system: Ehrlich carcinoma; experiment: Ehrlich carcinoma implanted intraperitoneally, survival (Experimental Example 6); assay type: in vivo, male ICR mice; conditions: once daily for seven days
# Method: A plurality of groups each consisting of six male ICR mice (7-8 weeks old) were implanted intraperitoneally with 2 x 10^6 Ehrlich carcinoma. After 24 hours, Y-6430 dissolved in physiological saline was administered intraperitoneally once daily for seven days.
# [6] = system: Ehrlich carcinoma; experiment: Ehrlich carcinoma implanted subcutaneously, tumor weight (Experimental Example 7); assay type: in vivo, male ICR mice; conditions: once daily for seven days, 24 hours after final administration, control 399.5 mg
# Method: A plurality of groups each consisting of six male ICR mice (7-8 weeks old) were respectively implanted subcutaneously with […] Ehrlich carcinoma. After 24 hours, Y-6430 dissolved in physiological saline was administered intraperitoneally once daily for seven days. 24 hours after the final administration, the test animals were killed by ether anesthesia, and the carcinoma of each test animal was exercised and weighed.
# [7] = system: human breast carcinoma MX-1; experiment: Human breast carcinoma MX-1 implanted into kidneys, tumor weight change (Experimental Example 10); assay type: in vivo, male Swiss nude mice; conditions: 5th day and 9th day, tumor weight change on 11th day, experiment conducted by National Cancer Institute
# Method: A plurality of groups each consisting of six male Swiss nude mice as test groups and twelve of them as the control group were implanted into the respective kidneys with human breast carcinoma MX-1. Each of the animals was administered subcutaneously with Y-6430 dissolved in physiological saline on the next day to the implantation, 5th day and 9th day. On llth day, each of the weight of carcinoma was measured, and the tumor weight change (%) of the implanted carcinoma was calculated in accordance with the following scheme.
# [8] = Acute toxicity in mice (Experimental Example 11); conditions: mouse, in vivo, ip; administered intraperitoneally, male ddn mice
# Method: (§6) Acute toxicity value when Y-6430 was administered intraperitoneally to male ddn mice was 1,500 mgjkg or more. 'Acute toxicity values when AH-44 carcinoma cells were implanted peritoneally and orally to Donryu rats were both 1,000 mg/kg or more.
# [9] = Acute toxicity in AH-44 carcinoma bearing rats (Experimental Example 11); conditions: rat, in vivo, Donryu rats with AH-44 carcinoma cells
# Method: as §6
compound,measurement,setting,value
"CCOC(=O)[C@@H](N)CSC(=O)NC.Cl [Y-6430, S-methylcarbamoyl-L-cysteine ethyl ester hydrochloride]",30-day Survivors,[1]; 100 mg/kg/day i.p.,0/5
same,Average Survival Time,[1]; 100 mg/kg/day i.p.,24.0 days
same,Life-Prolongation Ratio (%),[1]; 100 mg/kg/day i.p.,218%
same,30-day Survivors,[1]; 100 mg/kg/day p.o.,0/5
same,Average Survival Time,[1]; 100 mg/kg/day p.o.,12.6 days
same,Life-Prolongation Ratio (%),[1]; 100 mg/kg/day p.o.,115%
same,30-day Survivors,[1]; 250 mg/kg/day i.p.,1/5
same,Average Survival Time,[1]; 250 mg/kg/day i.p.,25.0 days
same,Life-Prolongation Ratio (%),[1]; 250 mg/kg/day i.p.,227%
same,30-day Survivors,[1]; 250 mg/kg/day p.o.,0/5
same,Average Survival Time,[1]; 250 mg/kg/day p.o.,18.2 days
same,Life-Prolongation Ratio (%),[1]; 250 mg/kg/day p.o.,165%
same,30-day Survivors,[1]; 500 mg/kg/day i.p.,1/5
same,Average Survival Time,[1]; 500 mg/kg/day i.p.,27.0 days
same,Life-Prolongation Ratio (%),[1]; 500 mg/kg/day i.p.,245%
same,30-day Survivors,[1]; 500 mg/kg/day p.o.,0/5
same,Average Survival Time,[1]; 500 mg/kg/day p.o.,21.0 days
same,Life-Prolongation Ratio (%),[1]; 500 mg/kg/day p.o.,191%
same,30-day Survivors,"[1]; 1,000 mg/kg/day p.o.",0/5
same,Average Survival Time,"[1]; 1,000 mg/kg/day p.o.",23.0 days
same,Life-Prolongation Ratio (%),"[1]; 1,000 mg/kg/day p.o.",209%
same,effectiveness against IMC carcinoma,"[1]; administered orally or intraperitoneally, T/C equal to or greater than 125% regarded as effective",effective
same,30-day Survivors,[2]; 100 mg/kg/day i.p.,0/5
same,Average Survival Time,[2]; 100 mg/kg/day i.p.,13.4 days
same,Life-Prolongation Ratio (%),[2]; 100 mg/kg/day i.p.,134%
same,30-day Survivors,[2]; 100 mg/kg/day p.o.,0/5
same,Average Survival Time,[2]; 100 mg/kg/day p.o.,11.6 days
same,Life-Prolongation Ratio (%),[2]; 100 mg/kg/day p.o.,116%
same,30-day Survivors,[2]; 250 mg/kg/day i.p.,0/5
same,Average Survival Time,[2]; 250 mg/kg/day i.p.,14.6 days
same,Life-Prolongation Ratio (%),[2]; 250 mg/kg/day i.p.,146%
same,30-day Survivors,[2]; 250 mg/kg/day p.o.,0/5
same,Average Survival Time,[2]; 250 mg/kg/day p.o.,13.4 days
same,Life-Prolongation Ratio (%),[2]; 250 mg/kg/day p.o.,134%
same,30-day Survivors,[2]; 500 mg/kg/day i.p.,0/5
same,Average Survival Time,[2]; 500 mg/kg/day i.p.,17.2 days
same,Life-Prolongation Ratio (%),[2]; 500 mg/kg/day i.p.,172%
same,30-day Survivors,[2]; 500 mg/kg/day p.o.,0/5
same,Average Survival Time,[2]; 500 mg/kg/day p.o.,15.0 days
same,Life-Prolongation Ratio (%),[2]; 500 mg/kg/day p.o.,150%
same,30-day Survivors,"[2]; 1,000 mg/kg/day p.o.",0/5
same,Average Survival Time,"[2]; 1,000 mg/kg/day p.o.",16.6 days
same,Life-Prolongation Ratio (%),"[2]; 1,000 mg/kg/day p.o.",166%
same,effectiveness against P388 leukemia,"[2]; summary of Tables 2 and 3, T/C equal to or greater than 125% regarded as effective",effective
same,Average Survival Time,[3]; 50 mg/kg/day i.p.,8.4 days
same,Life-Prolongation Ratio (%),[3]; 50 mg/kg/day i.p.,105%
same,Average Survival Time,[3]; 100 mg/kg/day i.p.,9.4 days
same,Life-Prolongation Ratio (%),[3]; 100 mg/kg/day i.p.,118%
same,Average Survival Time,[3]; 250 mg/kg/day i.p.,9.8 days
same,Life-Prolongation Ratio (%),[3]; 250 mg/kg/day i.p.,123%
same,Average Survival Time,[3]; 500 mg/kg/day i.p.,12.4 days
same,Life-Prolongation Ratio (%),[3]; 500 mg/kg/day i.p.,155%
same,effectiveness against L1210 leukemia,[3]; group administered with 500 mg/kg i.p.,effective
same,Average Survival Time,[4]; 100 mg/kg/day s.c.,8.2 days
same,Life-Prolongation Ratio (%),[4]; 100 mg/kg/day s.c.,103%
same,Average Survival Time,[4]; 250 mg/kg/day p.o.,9.4 days
same,Life-Prolongation Ratio (%),[4]; 250 mg/kg/day p.o.,115%
same,Average Survival Time,[4]; 250 mg/kg/day s.c.,9.2 days
same,Life-Prolongation Ratio (%),[4]; 250 mg/kg/day s.c.,115%
same,Average Survival Time,[4]; 500 mg/kg/day p.o.,11.4 days
same,Life-Prolongation Ratio (%),[4]; 500 mg/kg/day p.o.,139%
same,Average Survival Time,[4]; 500 mg/kg/day s.c.,10.8 days
same,Life-Prolongation Ratio (%),[4]; 500 mg/kg/day s.c.,135%
same,Average Survival Time,"[4]; 1,000 mg/kg/day p.o.",13.8 days
same,Life-Prolongation Ratio (%),"[4]; 1,000 mg/kg/day p.o.",168%
same,effectiveness against L1210 leukemia,[4]; oral and subcutaneous administration,effective
same,30-day Survivors,[5]; 50 mg/kg/day i.p.,0/12
same,Average Survival Time,[5]; 50 mg/kg/day i.p.,18.6 days
same,30-day Survivors,[5]; 100 mg/kg/day i.p.,6/12
same,Average Survival Time,[5]; 100 mg/kg/day i.p.,26.0 days
same,Average Tumor Weight,[6]; 50 mg/kg/day i.p.,194.0 mg
same,Average Tumor Weight,[6]; 100 mg/kg/day i.p.,146.6 mg
same,Proliferation Ratio (%),[7]; 225 mg/kg s.c. on next day,-70%
same,Proliferation Ratio (%),[7]; 450 mg/kg s.c. on next day,-64%
same,Proliferation Ratio (%),[7]; 900 mg/kg s.c. on next day,-65%
same,LD50,[8],≥ 1500 mg/kg
same,LD50,"[9]; ip, peritoneally",≥ 1000 mg/kg
same,LD50,"[9]; po, orally",≥ 1000 mg/kg
